ChEMBL document CHEMBL5352396, “Synthesis and biological evaluation of novel FiVe1 derivatives as potent and selective agents for the treatment of mesenchymal cancers” (Eur J Med Chem, 2022)
pIC50: −log10 of the molar value. Values after ≈ are worked out from the molar mass of the structure shown. Active and inactive are the calls of the source. The calls are words filed in the database; no cut-off is given here.

Assays:
[1] = tested on: GCT; assay: cells; conditions: Homo sapiens, 72 h
[2] = tested on: RD; assay: cells; conditions: Homo sapiens, 72 h
[3] = tested on: HT-1080; assay: cells; conditions: Homo sapiens, HT-1080, 72 h
[4] = tested on: MCF7; assay: cells; conditions: Homo sapiens, MCF7, 72 h
[5] = biological target: Vimentin (Homo sapiens) (UniProt P08670); assay: Induction of Vimentin phosphorylation in human RD cells at 1 uM incubated for 24 hrs by Western blot analysis; type: cell-based
Chain of Vimentin (Homo sapiens) (P08670 whole entry): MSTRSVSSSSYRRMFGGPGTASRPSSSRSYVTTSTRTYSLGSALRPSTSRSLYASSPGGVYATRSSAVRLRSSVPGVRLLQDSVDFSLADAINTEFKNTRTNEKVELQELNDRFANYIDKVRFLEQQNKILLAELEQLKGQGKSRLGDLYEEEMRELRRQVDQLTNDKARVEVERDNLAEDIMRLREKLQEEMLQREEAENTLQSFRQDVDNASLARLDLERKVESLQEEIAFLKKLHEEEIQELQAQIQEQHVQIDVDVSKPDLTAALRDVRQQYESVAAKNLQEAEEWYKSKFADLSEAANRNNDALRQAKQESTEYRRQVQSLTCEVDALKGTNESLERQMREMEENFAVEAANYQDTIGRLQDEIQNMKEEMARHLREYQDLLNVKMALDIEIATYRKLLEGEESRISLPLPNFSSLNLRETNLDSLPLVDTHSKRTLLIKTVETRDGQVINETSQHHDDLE

[6] = biological target: Vimentin (Homo sapiens) (UniProt P08670); assay: Induction of Vimentin phosphorylation in human GCT cells at 1 uM incubated for 24 hrs by Western blot analysis; type: cell-based
[7] = biological target: Vimentin (Homo sapiens) (UniProt P08670); assay: Induction of Vimentin phosphorylation in human HT-1080 cells at 1 uM incubated for 24 hrs by Western blot analysis; type: cell-based
[8] = Kinetic solubility of the compound in DPBS buffer at pH 7.4 incubated for 16 hrs under shaking condition by HPLC analysis; type: physicochemical; conditions: read-out: Kinetic_solubility
[9] = Metabolic stability in CD-1 mouse liver microsomes assessed as half life at 100 uM measured upto 60 mins in presence of NADPH by LC-MS/MS analysis; type: ADME, Microsome; conditions: for t1/2: mouse, microsomes, 1 h, 100 µM
[10] = Metabolic stability in CD-1 mouse liver microsomes assessed as parent compound remaining at 100 uM measured after 60 mins in presence of NADPH by LC-MS/MS analysis; type: ADME, Microsome; conditions: read-out: Stability
[11] = Metabolic stability in CD-1 mouse liver microsomes assessed as intrinsic clearance at 100 uM measured upto 60 mins in presence of NADPH by LC-MS/MS analysis; type: ADME, Microsome; conditions: for microsomal intrinsic clearance: mouse, microsomes, 1 h, 100 µM

SMILES: Clc1cccc(N2CCN(c3ccnnc3)CC2)c1
- pIC50 [1]: < 4.70
- pIC50 [2]: < 4.70
- pIC50 [3]: < 4.70
- pIC50 [4]: < 4.70

SMILES: Clc1cccc(N2CCN(c3ccnc4c(Cl)cccc34)CC2)c1
- Activity [5]: inactive
- pIC50 [1]: < 4.70
- Activity [6]: inactive
- Activity [7]: inactive
- pIC50 [2]: < 4.70
- pIC50 [3]: < 4.70
- pIC50 [4]: < 4.70

SMILES: COC(COc1cc(Cl)cc(N2CCN(c3cnnc4c(Cl)cccc34)CC2)c1)OC
- solubility kinetic at 16 h [8]: < 1 µM
- pIC50 [1]: 5.53
- pIC50 [2]: 4.72
- pIC50 [4]: < 4.70

SMILES: Clc1cc(Cl)cc(N2CCN(c3cnnc4c(Cl)cccc34)CC2)c1
- pIC50 [1]: 6.50
- pIC50 [2]: 6.21
- pIC50 [3]: 6.39
- pIC50 [4]: < 4.70

SMILES: Nc1cc(Cl)cc(N2CCN(c3cnnc4c(Cl)cccc34)CC2)c1
- pIC50 [1]: 6.30
- pIC50 [2]: 5.88
- pIC50 [3]: 6.19
- pIC50 [4]: < 4.70

SMILES: COC(=O)CCOc1cc(Cl)cc(N2CCN(c3cnnc4c(Cl)cccc34)CC2)c1
- solubility kinetic at 16 h [8]: 82 µM (≈ 37.8 µg/mL)
- pIC50 [1]: 6.00
- t1/2 [9]: 35.5 min
- pIC50 [2]: 5.95
- pIC50 [3]: 6.01
- remaining at 1 h, 100 µM [10]: 28.9%
- microsomal intrinsic clearance [11]: 39 µL/min/mg
- pIC50 [4]: < 4.70

SMILES: NCCOc1cc(Cl)cc(N2CCN(c3cnnc4c(Cl)cccc34)CC2)c1
- solubility kinetic at 16 h [8]: 38 µM (≈ 15.9 µg/mL)
- pIC50 [1]: 5.45
- t1/2 [9]: > 145 min
- pIC50 [2]: 5.34
- pIC50 [3]: 5.41
- remaining at 1 h, 100 µM [10]: 78.7%
- microsomal intrinsic clearance [11]: < 9.6 µL/min/mg
- pIC50 [4]: < 4.70

SMILES: C[C@H]1CN(c2cnnc3c(Cl)cccc23)CCN1c1cc(Cl)cc(Cl)c1
- pIC50 [1]: 5.89
- pIC50 [2]: 5.97
- pIC50 [3]: 5.94
- pIC50 [4]: < 4.70

SMILES: Clc1cccc(N2CCN(c3ncnc4ccccc34)CC2)c1
- pIC50 [1]: < 4.70
- pIC50 [2]: < 4.70
- pIC50 [3]: < 4.70
- pIC50 [4]: < 4.70

SMILES: COc1cccc(N2CCN(c3cnnc4c(Cl)cccc34)CC2)c1
- pIC50 [1]: 6.40
- pIC50 [2]: 6.05
- pIC50 [3]: 6.22
- pIC50 [4]: < 4.70

SMILES: Clc1cccc(C2CCN(c3cnnc4c(Cl)cccc34)CC2)c1
- pIC50 [1]: < 4.70
- pIC50 [2]: < 4.70
- pIC50 [3]: < 4.70
- pIC50 [4]: < 4.70

SMILES: Clc1cccc(N2CCN(c3ccnc4ccccc34)CC2)c1
- pIC50 [1]: < 4.70
- pIC50 [2]: < 4.70
- pIC50 [3]: < 4.70
- pIC50 [4]: < 4.70

SMILES: Fc1c(Cl)cc(N2CCN(c3cnnc4c(Cl)cccc34)CC2)cc1Cl
- t1/2 [9]: 32.5 min
- remaining at 1 h, 100 µM [10]: 29.6%
- microsomal intrinsic clearance [11]: 42.6 µL/min/mg

SMILES: CN(C)CCCOc1cc(Cl)cc(N2CCN(c3cnnc4c(Cl)cccc34)CC2)c1
- solubility kinetic at 16 h [8]: 48 µM (≈ 22.1 µg/mL)
- pIC50 [2]: 5.43
- pIC50 [3]: 5.57
- pIC50 [4]: 5.34

SMILES: Clc1cccc(N2C[C@@H]3CN(c4cnnc5c(Cl)cccc45)C[C@@H]3C2)c1
- pIC50 [1]: < 4.70
- pIC50 [2]: < 4.70
- pIC50 [3]: < 4.70
- pIC50 [4]: < 4.70

SMILES: Oc1cc(O)cc(N2CCN(c3cnnc4c(Cl)cccc34)CC2)c1
- pIC50 [1]: 6.18
- pIC50 [2]: 5.89
- pIC50 [3]: 6.02
- pIC50 [4]: < 4.70

SMILES: COc1cc(OC)cc(N2CCN(c3cnnc4c(Cl)cccc34)CC2)c1
- pIC50 [1]: 7.48
- t1/2 [9]: 2.1 min
- pIC50 [2]: 7.48
- pIC50 [3]: 7.43
- remaining at 1 h, 100 µM [10]: 0.1%
- microsomal intrinsic clearance [11]: 657.4 µL/min/mg
- pIC50 [4]: 4.81

SMILES: Oc1cc(Cl)cc(N2CCN(c3cnnc4c(Cl)cccc34)CC2)c1
- pIC50 [1]: 7.24
- pIC50 [2]: 7.08
- pIC50 [3]: 7.07
- pIC50 [4]: 4.92

SMILES: Clc1cccc(N2CCN(c3cnnc4ccccc34)CC2)c1
- pIC50 [1]: < 4.70
- pIC50 [2]: < 4.70
- pIC50 [3]: < 4.70
- pIC50 [4]: < 4.70

SMILES: Clc1cc(N2CCCC2)cc(N2CCN(c3cnnc4c(Cl)cccc34)CC2)c1
- pIC50 [1]: < 4.70
- pIC50 [2]: < 4.70
- pIC50 [3]: < 4.70
- pIC50 [4]: < 4.70

SMILES: COc1ccc2c(N3CCN(c4cccc(Cl)c4)CC3)cnnc2c1Cl
- pIC50 [1]: < 4.70
- pIC50 [2]: < 4.70
- pIC50 [3]: < 4.70
- pIC50 [4]: < 4.70

SMILES: Clc1cccc(N2CC3CC2CN3c2cnnc3c(Cl)cccc23)c1 (centres undefined)
- pIC50 [1]: 5.05
- pIC50 [2]: 5.25
- pIC50 [3]: 5.49
- pIC50 [4]: < 4.70

SMILES: CN(C)CCOc1cc(Cl)cc(N2CCN(c3cnnc4c(Cl)cccc34)CC2)c1
- solubility kinetic at 16 h [8]: 131 µM (≈ 58.5 µg/mL)
- pIC50 [1]: 5.19
- pIC50 [2]: 5.15
- pIC50 [3]: 5.33
- pIC50 [4]: 4.80

SMILES: Clc1cccc(N2CCCN(c3cnnc4c(Cl)cccc34)CC2)c1
- pIC50 [1]: < 4.70
- pIC50 [2]: < 4.70
- pIC50 [3]: < 4.70
- pIC50 [4]: < 4.70

SMILES: COc1cccc2c(N3CCN(c4cccc(Cl)c4)CC3)cnnc12
- pIC50 [1]: < 4.70
- pIC50 [2]: < 4.70
- pIC50 [3]: < 4.70
- pIC50 [4]: < 4.70

SMILES: N#Cc1cc(Cl)cc(N2CCN(c3cnnc4c(Cl)cccc34)CC2)c1
- pIC50 [1]: 6.72
- pIC50 [2]: 6.40
- pIC50 [3]: 6.42
- pIC50 [4]: < 4.70

SMILES: OC(O)COc1cc(Cl)cc(N2CCN(c3cnnc4c(Cl)cccc34)CC2)c1
- half-life at 100 µM ([9]; CD-1, mouse, liver microsomes): 42.7 min
- remaining at 1 h, 100 µM [10]: 35.7%
- microsomal CLint at 100 µM ([11]; CD-1, mouse, liver microsomes, read-out: CLH): 32.5 µL/min/mg

SMILES: Clc1cccc(N2C[C@H]3CC[C@@H](C2)N3c2cnnc3c(Cl)cccc23)c1
- pIC50 [1]: 5.39
- pIC50 [2]: 5.21
- pIC50 [3]: 5.25
- pIC50 [4]: < 4.70

SMILES: Clc1cc(OCCOC2CCCCO2)cc(N2CCN(c3cnnc4c(Cl)cccc34)CC2)c1 (centres undefined)
- solubility kinetic at 16 h [8]: < 1 µM
- pIC50 [1]: < 4.70
- pIC50 [2]: < 4.70
- pIC50 [3]: < 4.70
- pIC50 [4]: < 4.70

SMILES: Clc1cc(OCCN2CCOCC2)cc(N2CCN(c3cnnc4c(Cl)cccc34)CC2)c1
- solubility kinetic at 16 h [8]: < 1 µM
- pIC50 [1]: < 4.70
- pIC50 [2]: < 4.70
- pIC50 [3]: < 4.70
- pIC50 [4]: < 4.70

SMILES: CC(=O)Nc1cc(Cl)cc(N2CCN(c3cnnc4c(Cl)cccc34)CC2)c1
- pIC50 [1]: 4.97
- pIC50 [2]: 5.13
- pIC50 [3]: 4.97
- pIC50 [4]: < 4.70

SMILES: COCCOc1cc(Cl)cc(N2CCN(c3cnnc4c(Cl)cccc34)CC2)c1
- solubility kinetic at 16 h [8]: < 1 µM
- pIC50 [1]: 5.97
- pIC50 [2]: 5.87
- pIC50 [3]: 5.77
- pIC50 [4]: < 4.70

SMILES: Fc1ccc(N2CCN(c3cnnc4c(Cl)cccc34)CC2)cc1Cl
- t1/2 [9]: 6.7 min
- remaining at 1 h, 100 µM [10]: 0.4%
- microsomal intrinsic clearance [11]: 205.8 µL/min/mg

SMILES: O=C(O)CCOc1cc(Cl)cc(N2CCN(c3cnnc4c(Cl)cccc34)CC2)c1
- solubility kinetic at 16 h [8]: > 200 µM
- pIC50 [1]: 6.12
- pIC50 [2]: 5.95
- pIC50 [3]: 5.81
- pIC50 [4]: < 4.70

SMILES: Clc1cccc(N2CCN(c3cc(-c4ccccc4)ncn3)CC2)c1
- pIC50 [1]: < 4.70
- pIC50 [2]: < 4.70
- pIC50 [3]: < 4.70
- pIC50 [4]: < 4.70

SMILES: OCCOc1cc(Cl)cc(N2CCN(c3cnnc4c(Cl)cccc34)CC2)c1
- solubility kinetic at 16 h [8]: 13 µM (≈ 5.45 µg/mL)
- pIC50 [1]: 6.18
- t1/2 [9]: 19.1 min
- pIC50 [2]: 6.39
- pIC50 [3]: 6.30
- remaining at 1 h, 100 µM [10]: 10.5%
- microsomal intrinsic clearance [11]: 72.5 µL/min/mg
- pIC50 [4]: < 4.70
